# * marks the point of attachment. X1 = CC1(C)C(/C=C/C2=C(Cl)C(=C/C=C3/N(CCCCCC(=O)*)c4ccc5cc(S(=O)(=O)O)ccc5c4C3(C)C)/CCC2)=[N+](CCCS(=O)(=O)[O-])c2ccc(N(CCCS(=O)(=O)O)CCCS(=O)(=O)O)cc21; X2 = CC(C)(C)c1cc(/C=C/C=C2\N(CCCS(=O)(=O)O)c3ccc(S(=O)(=O)O)cc3C2(C)CCCC(=O)CCN2C(=O)CC(*)C2=O)c2ccc(N(CCCS(=O)(=O)[O-])CCCS(=O)(=O)O)cc2[o+]1
# Key:
# [1] = target: T1, plasma ADAMTS13 (Homo sapiens, UniProt Q76LX8); assay: Kinetics of FRETS-rVWF71 cleavage by plasma ADAMTS13 (Michaelis-Menten); assay type: biochemical
# T1 construct: from tissue; host or cells: human plasma or serum (pooled normal plasma, healthy donors, TTP patients)
# T1 sequence (Q76LX8 75-1427): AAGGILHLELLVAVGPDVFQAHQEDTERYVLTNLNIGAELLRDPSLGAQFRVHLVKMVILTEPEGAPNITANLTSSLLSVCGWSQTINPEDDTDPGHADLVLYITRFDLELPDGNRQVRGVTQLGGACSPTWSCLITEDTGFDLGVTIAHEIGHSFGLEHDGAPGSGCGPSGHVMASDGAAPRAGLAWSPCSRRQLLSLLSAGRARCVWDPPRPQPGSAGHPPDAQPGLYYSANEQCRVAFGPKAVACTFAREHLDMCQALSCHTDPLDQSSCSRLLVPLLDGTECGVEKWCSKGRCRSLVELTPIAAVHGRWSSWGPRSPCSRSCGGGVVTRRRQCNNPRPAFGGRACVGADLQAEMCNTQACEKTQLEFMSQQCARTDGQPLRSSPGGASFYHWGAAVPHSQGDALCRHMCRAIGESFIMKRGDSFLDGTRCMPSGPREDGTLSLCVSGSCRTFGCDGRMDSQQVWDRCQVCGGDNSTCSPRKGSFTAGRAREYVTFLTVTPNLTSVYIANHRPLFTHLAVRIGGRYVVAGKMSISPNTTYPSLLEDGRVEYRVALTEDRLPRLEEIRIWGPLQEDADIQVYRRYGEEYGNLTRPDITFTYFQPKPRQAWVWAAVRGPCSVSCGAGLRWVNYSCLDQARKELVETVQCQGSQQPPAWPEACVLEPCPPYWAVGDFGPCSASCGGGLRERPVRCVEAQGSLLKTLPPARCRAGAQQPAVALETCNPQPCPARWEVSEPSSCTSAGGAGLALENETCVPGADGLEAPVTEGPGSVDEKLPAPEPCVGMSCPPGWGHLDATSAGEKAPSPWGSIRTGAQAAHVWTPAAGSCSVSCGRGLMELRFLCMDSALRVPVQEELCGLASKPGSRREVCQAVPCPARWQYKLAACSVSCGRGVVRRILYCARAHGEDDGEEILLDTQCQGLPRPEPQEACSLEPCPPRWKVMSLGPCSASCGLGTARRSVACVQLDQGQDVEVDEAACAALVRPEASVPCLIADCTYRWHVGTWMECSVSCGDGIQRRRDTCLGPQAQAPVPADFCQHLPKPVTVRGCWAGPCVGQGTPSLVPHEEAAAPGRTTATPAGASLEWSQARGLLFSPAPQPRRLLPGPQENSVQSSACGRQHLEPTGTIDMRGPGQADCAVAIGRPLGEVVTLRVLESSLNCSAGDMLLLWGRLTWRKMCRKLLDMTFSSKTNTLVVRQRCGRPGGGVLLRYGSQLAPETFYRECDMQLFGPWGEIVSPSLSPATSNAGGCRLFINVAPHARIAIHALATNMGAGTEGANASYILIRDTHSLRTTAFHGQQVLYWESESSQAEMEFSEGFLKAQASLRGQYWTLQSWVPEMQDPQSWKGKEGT
# Experimental: In these experiments, FRETS-rVWF71 cleavage by plasma ADAMTS13 (50 μL) was assessed in 200 μL reactions containing 50 mM HEPES, pH 7.4, 10 mM CaCl2, 150 mM NaCl, and 0.05% Tween-20, and varying concentrations of FRETS-rVWF71. The concentration of ADAMTS13 in PNP is ˜1.03 μg/ml (Feys, H. B., et al. J. Thromb. Haemost 4:955-62, 2006), or ˜6 nM for a molecular mass of 170 kDa. For each concentration of substrate, the relationship between product fluorescence and concentration was determined directly by cleaving FRETS-rVWF71 to completion with excess recombinant ADAMTS13 MDTCS (Feys, H. B., et al. J. Thromb. Haemost. 7:2088-95, 2009) and measuring the fluorescence. Control assays contained plasma that was completely deficient in ADAMTS13. The initial velocities (nM/min) as a function of substrate concentration were fitted to the Michealis-Menten equation by nonlinear regression analysis (Prism, GraphPad).
# (FIG. 6). […] (Anderson, P. J., et al. J. Biol. Chem. 281:850-7, 2006).
# [2] = target: T2, ADAMTS13 (Homo sapiens, UniProt Q76LX8); assay: ADAMTS13 activity of plasma samples with FRETS-rVWF71 substrate; assay type: biochemical; design: from tissue; host or cells: human plasma or serum (pooled normal plasma, healthy donors, TTP patients); conditions: samples from patients with idiopathic TTP
# T2 sequence (Q76LX8 75-1427): T1 sequence (Q76LX8 75-1427)
# Experimental: Assays were performed at 30° C. Samples (100 μL) of plasma or serum, diluted as necessary in assay buffer, were pipetted in duplicate in 96 well white microplates (Optiplate-96, PerkinElmer, Waltham, Mass.). Reaction was initiated by addition of 100 μL substrate in assay buffer. Cleavage of FRETS-rVWF71 was detected as an increase in fluorescence compared to control reactions without added enzyme at 2 min intervals using a Victor^2V Multilabel Counter (PerkinElmer, Waltham, Mass.) or Synergy H1 Hybrid Multi-Mode Microplate Reader (Biotek, Winooski, Vt.) equipped with 635±10 nm excitation and 660±10 nm emission filters. Initial velocities were determined by fitting progress curves to the polynomial ΔF=A+Bt+Ct^2, where ΔF is the change in fluorescence, t is time, A is the y-intercept, B is the initial velocity (slope), and the term Ct^2 accounts for any decline in velocity due to substrate consumption or photobleaching.
# In these experiments, frozen Li^+-heparin plasma samples were obtained from 100 healthy controls (Biological Specialty Corp., Colmar, Pa.) deidentified except for demographic information on gender, age, and ethnicity. Pooled normal Li^+-heparin plasma (PNP) for assay standardization was prepared from at least 35 donors. […] activity of randomly selected controls samples was determined by the FRETS-VWF73 method. […]
substance,measurement,setting,value
X1-GQAPNLVYMVTGC(X2)PASDEIRRLPGDIQVVPIGVGPNANVQELERIGWPNAPILIQDFETLPREAPDLVLQR [FRETS-rVWF71],decrease of the rate of catalysis relative to FRETS-VWF73,[1]; kcat compared with FRETS-VWF73,~8 fold
same,kcat,"[1]; plasma ADAMTS13, 50 mM HEPES pH 7.4, 10 mM CaCl2, 150 mM NaCl, 30° C.",0.113 s⁻¹
same,sensitivity of ADAMTS13 activity assay relative to FRETS-VWF73,[2],20 fold

# Source: patent US8663912B2, “Fluorogenic substrate for ADAMTS13” (Washington University, priority 2011, dated 2014)
